Data as given in PubChem BioAssay AID330 (DTP/NCI, 2004).
“And” between values parts separate entries of the source, which are not always exact repeats. Equal entries are not always repeated. Inconclusive results and toxic doses are left out. Rule for the calls: active = survival T/C of 150% or more; inactive = T/C below 125% in these data.

Test system: P388 leukemia ip, CD2F1 mice, survival T/C
Assay: NCI In Vivo Anticancer Drug Screen. Data for tumor model P388 Leukemia (intraperitoneal) in CD2F1 (CDF1) mice
Details: endpoint: median survival time, higher = longer survival
Procedure, shortened: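 Mice carrying the transplanted tumor received test compound or vehicle. Survival was recorded in each group, and the value is the treated-group measurement divided by that of the vehicle-treated control group.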

[1] = dose: 50.0 mg/kg/injection, schedule: Q01DX005 (ip), vehicle: saline with Tween-80
[2] = dose: 100.0 mg/kg/injection, schedule: Q01DX005 (ip), vehicle: saline with Tween-80
[3] = dose: 200.0 mg/kg/injection, schedule: Q01DX005 (ip), vehicle: saline with Tween-80
[4] = dose: 50.0 mg/kg/injection, schedule: Q01DX009 (ip), vehicle: saline with Tween-80
[5] = dose: 100.0 mg/kg/injection, schedule: Q01DX009 (ip), vehicle: saline with Tween-80
[6] = dose: 200.0 mg/kg/injection, schedule: Q01DX009 (ip), vehicle: saline with Tween-80
[7] = dose: 50.0 mg/kg/injection, schedule: Q01DX009 (ip), vehicle: saline
[8] = dose: 100.0 mg/kg/injection, schedule: Q01DX009 (ip), vehicle: saline
[9] = dose: 50.0 mg/kg/injection, schedule: Q01DX005 (ip), vehicle: Klucel (hydroxypropylcellulose) (HPC)
[10] = dose: 100.0 mg/kg/injection, schedule: Q01DX005 (ip), vehicle: Klucel (hydroxypropylcellulose) (HPC)
[11] = dose: 200.0 mg/kg/injection, schedule: Q01DX005 (ip), vehicle: Klucel (hydroxypropylcellulose) (HPC)
[12] = dose: 60.0 mg/kg/injection, schedule: Q01DX005 (ip), vehicle: saline with Tween-80
[13] = dose: 120.0 mg/kg/injection, schedule: Q01DX005 (ip), vehicle: saline with Tween-80
[14] = dose: 240.0 mg/kg/injection, schedule: Q01DX005 (ip), vehicle: saline with Tween-80

Measured: T/C

CCCCCCCCCCCCCCCC(=O)O[C@@H]1[C@@H](C)[C@@]2(O)[C@@H](C=C(CO)C[C@]3(O)C(=O)C(C)=C[C@@H]23)[C@H]2[C@]1(OC(C)=O)[C@]2(C)CO
inactive: dose: 0.13 mg/kg/injection, schedule: Q01DX005 (ip), vehicle: distilled water + Tween-80 117 % of control and 120 % of control | dose: 0.25 mg/kg/injection, schedule: Q01DX005 (ip), vehicle: distilled water + Tween-80 111 % of control | dose: 0.5 mg/kg/injection, schedule: Q01DX005 (ip), vehicle: distilled water + Tween-80 106 % of control

COc1ccc(O)c2c1C(=O)C=CC2=O
inactive: dose: 0.4 mg/kg/injection, schedule: Q01DX001 (ip), vehicle: saline with Tween-80 104 % of control | dose: 0.8 mg/kg/injection, schedule: Q01DX001 (ip), vehicle: saline with Tween-80 96 % of control | dose: 1.56 mg/kg/injection, schedule: Q01DX001 (ip), vehicle: saline with Tween-80 105 % of control | dose: 3.13 mg/kg/injection, schedule: Q01DX001 (ip), vehicle: saline with Tween-80 102 % of control

O=[N+]([O-])c1ccc(N=N/C(=N\Nc2ccccc2)c2nc3ccccc3[nH]2)c([N+](=O)[O-])c1
inactive: [1] 97 % of control | [2] 95 % of control | [3] 97 % of control

COc1cc(C2CC(=O)N(c3ccc(C)cc3)C(=O)C2)cc(OC)c1OC
inactive: dose: 25.0 mg/kg/injection, schedule: Q01DX005 (ip), vehicle: Klucel + Tween-80 98 % of control | dose: 50.0 mg/kg/injection, schedule: Q01DX005 (ip), vehicle: Klucel + Tween-80 100 % of control and 105 % of control and 122 % of control | dose: 50.0 mg/kg/injection, schedule: Q01DX009 (ip), vehicle: Klucel + Tween-80 108 % of control | dose: 100.0 mg/kg/injection, schedule: Q01DX005 (ip), vehicle: Klucel + Tween-80 106 % of control and 110 % of control (2×) | dose: 114.0 mg/kg/injection, schedule: Q01DX009 (ip), vehicle: Klucel + Tween-80 117 % of control | dose: 175.0 mg/kg/injection, schedule: Q01DX009 (ip), vehicle: Klucel + Tween-80 122 % of control | dose: 200.0 mg/kg/injection, schedule: Q01DX005 (ip), vehicle: Klucel + Tween-80 110 % of control and 114 % of control and 122 % of control | dose: 264.0 mg/kg/injection, schedule: Q01DX009 (ip), vehicle: Klucel + Tween-80 93 % of control | dose: 400.0 mg/kg/injection, schedule: Q01DX009 (ip), vehicle: Klucel + Tween-80 92 % of control

Cn1cnc([N+](=O)[O-])c1[Se]c1ncnc2c1c(C#N)cn2C1OC(CO)C(O)C1O (stereo not given)
inactive: dose: 12.5 mg/kg/injection, schedule: Q04DX003 (ip), vehicle: saline 103 % of control | dose: 25.0 mg/kg/injection, schedule: Q04DX003 (ip), vehicle: saline 116 % of control | dose: 50.0 mg/kg/injection, schedule: Q04DX003 (ip), vehicle: saline 116 % of control

CCC(=O)OC1(c2ccccc2)CCP(C)(=S)CC1 (stereo not given)
inactive: dose: 50.0 mg/kg/injection, schedule: Q01DX009 (ip), vehicle: Klucel (hydroxypropylcellulose) (HPC) 97 % of control | dose: 100.0 mg/kg/injection, schedule: Q01DX009 (ip), vehicle: Klucel (hydroxypropylcellulose) (HPC) 106 % of control | dose: 200.0 mg/kg/injection, schedule: Q01DX009 (ip), vehicle: Klucel (hydroxypropylcellulose) (HPC) 101 % of control

CCn1c(=O)oc2ccc(Br)cc21
inactive: dose: 100.0 mg/kg/injection, schedule: Q04DX002 (ip), vehicle: Klucel (hydroxypropylcellulose) (HPC) 100 % of control | dose: 200.0 mg/kg/injection, schedule: Q04DX002 (ip), vehicle: Klucel (hydroxypropylcellulose) (HPC) 98 % of control | dose: 400.0 mg/kg/injection, schedule: Q04DX002 (ip), vehicle: Klucel (hydroxypropylcellulose) (HPC) 104 % of control

CCCN(CCC)c1ccc(N=Nc2ccccc2C(=O)O)cc1
inactive: [4] 102 % of control | [5] 105 % of control | [6] 112 % of control | dose: 400.0 mg/kg/injection, schedule: Q01DX009 (ip), vehicle: saline with Tween-80 110 % of control

NC(=O)C[CH2][Sn]([Cl])([Cl])[CH2]CC(N)=O
inactive: dose: 50.0 mg/kg/injection, schedule: Q01DX005 (ip), vehicle: saline 98 % of control | dose: 100.0 mg/kg/injection, schedule: Q01DX005 (ip), vehicle: saline 98 % of control | dose: 200.0 mg/kg/injection, schedule: Q01DX005 (ip), vehicle: saline 105 % of control

FC(F)(F)c1ccccc1N=Cc1cccs1
inactive: [7] 113 % of control | [8] 103 % of control | dose: 200.0 mg/kg/injection, schedule: Q01DX009 (ip), vehicle: saline 104 % of control

CCCCCC(CN(C)C)C(/C=C/c1ccccc1Cl)=N\O (stereo not given)
inactive: [7] 106 % of control | [8] 112 % of control

O=[N+]([O-])C1=CC(=N/Br)/C=CC/1=N/Br
inactive: [1] 94 % of control | [2] 100 % of control | [3] 118 % of control

Nc1nc(N)c2nc(Sc3ccc(F)cc3)c(N)nc2n1
inactive: dose: 25.0 mg/kg/injection, schedule: Q01DX005 (ip), vehicle: Klucel (hydroxypropylcellulose) (HPC) 97 % of control | [9] 94 % of control | [10] 88 % of control

Cn1c(Br)c(Br)c(=O)n(C)c1=O
inactive: [9] 99 % of control | [10] 100 % of control | [11] 100 % of control

Cc1ccc2nc(CC(=O)c3ccccc3)c(CC(=O)c3ccccc3)nc2c1
inactive: [12] 93 % of control | [13] 94 % of control | [14] 96 % of control

O=c1c2ccccc2nc2n1CCc1c-2[nH]c2ccccc12
inactive: dose: 3.75 mg/kg/injection, schedule: Q01DX009 (ip), vehicle: saline with Tween-80 93 % of control | dose: 7.5 mg/kg/injection, schedule: Q01DX009 (ip), vehicle: saline with Tween-80 98 % of control | dose: 15.0 mg/kg/injection, schedule: Q01DX009 (ip), vehicle: saline with Tween-80 93 % of control

CC1=Nc2ccc(C(F)(F)F)cc2NC(=O)C1
inactive: [9] 100 % of control | [10] 99 % of control and 97 % of control | [11] 100 % of control and 96 % of control

CC1OC(=O)C(=O)/C1=C1/CC(C)(C)N(c2ccccc2)N1 (stereo not given)
inactive: dose: 25.0 mg/kg/injection, schedule: Q01DX009 (ip), vehicle: saline with Tween-80 104 % of control and 91 % of control | [4] 107 % of control and 108 % of control and 90 % of control | [5] 90 % of control and 96 % of control | [6] 88 % of control and 92 % of control

CCCCCCCCCCCSSCCCCCCCCCCC
inactive: dose: 100.0 mg/kg/injection, schedule: Q01DX009 (ip), vehicle: other 100 % of control | dose: 100.0 mg/kg/injection, schedule: Q04DX003 (ip), vehicle: other 109 % of control | dose: 200.0 mg/kg/injection, schedule: Q01DX009 (ip), vehicle: other 109 % of control | dose: 200.0 mg/kg/injection, schedule: Q04DX003 (ip), vehicle: other 104 % of control | dose: 400.0 mg/kg/injection, schedule: Q01DX009 (ip), vehicle: other 104 % of control | dose: 400.0 mg/kg/injection, schedule: Q04DX003 (ip), vehicle: other 100 % of control

CC1(C)CCCC2(C)OC(=O)C=C12 (stereo not given)
inactive: dose: 3.12 mg/kg/injection, schedule: Q01DX005 (ip), vehicle: distilled water + Tween-80 105 % of control | dose: 6.25 mg/kg/injection, schedule: Q01DX005 (ip), vehicle: distilled water + Tween-80 104 % of control | dose: 12.5 mg/kg/injection, schedule: Q01DX005 (ip), vehicle: distilled water + Tween-80 94 % of control

Cc1ccc(CSCC(NC(=O)OC(C)(C)C)C(=O)O)cc1 (stereo not given)
inactive: [9] 104 % of control | [10] 97 % of control | [11] 92 % of control

CN1C(c2ccccc2)=C(C#N)C(=O)CC(c2cccs2)N1C (stereo not given)
inactive: [12] 96 % of control | [13] 99 % of control | [14] 86 % of control

OC(CCl)Cc1ccccc1 (stereo not given)
inactive: dose: 25.0 mg/kg/injection, schedule: Q04DX003 (ip), vehicle: saline with Tween-80 104 % of control | dose: 50.0 mg/kg/injection, schedule: Q04DX003 (ip), vehicle: saline with Tween-80 100 % of control | dose: 100.0 mg/kg/injection, schedule: Q04DX003 (ip), vehicle: saline with Tween-80 100 % of control
